Consider 38 compounds from the NIST ThermoML archive (doi:10.1016/j.jct.2015.07.042).

This data set can be described thus: activity coefficient (dimensionless); of the first substance listed, at infinite dilution; xn = mol fraction of the nth substance listed. To be noted: 101 kPa, Liquid, Chromatography, x1 = 0.

Each structure is given as a SMILES string. Numbers after ± are expanded uncertainties.

For `CCC[N+](=O)[O-]` [1-nitropropane] + CCCCn1cc[n+](C)c1.[Cl-], the activity coefficient was found to be 2.51 ± 0.17 (358.15 K), 2.61 ± 0.18 (368.15 K), 2.69 ± 0.18 (378.15 K) and 2.8 ± 0.19 (388.15 K).
As to `CCC(C)O` (configuration not stated) [butan-2-ol] + CCCCn1cc[n+](C)c1.CS(=O)(=O)[O-], the activity coefficient reads like this: (398.15 K) 1.11 ± 0.071; (408.15 K) 1.18 ± 0.075; (418.15 K) 1.25 ± 0.081; (428.15 K) 1.33 ± 0.087.
Take `C#CCCCCC` [1-heptyne] + CCCCn1cc[n+](C)c1.COP(=O)([O-])OC: the activity coefficient is, setting by setting: (358.15 K) 4.21 ± 0.29; (368.15 K) 4.48 ± 0.31; (378.15 K) 4.7 ± 0.32; (388.15 K) 4.93 ± 0.34.
Regarding `C#CCCCCCC` [1-octyne] + CCCCn1cc[n+](C)c1.COP(=O)([O-])OC, the activity coefficient was 6.04 ± 0.41 (358.15 K), 6.22 ± 0.42 (368.15 K), 6.48 ± 0.44 (378.15 K) and 6.74 ± 0.46 (388.15 K).
The corresponding values for `Cc1ccccc1C` [1,2-dimethylbenzene] + CCCCn1cc[n+](C)c1.[Cl-] are 11.6 ± 0.79, 11.7 ± 0.8, 11.9 ± 0.81 and 12.3 ± 0.84.
Consider `CCO` [ethanol] + CCCCn1cc[n+](C)c1.COP(=O)([O-])OC, for which the activity coefficient is, setting by setting: (398.15 K) 0.16 ± 0.029; (408.15 K) 0.173 ± 0.029; (418.15 K) 0.189 ± 0.029; (428.15 K) 0.205 ± 0.029.
Turning to `CCOCC` [diethyl ether] + CCCCn1cc[n+](C)c1.[Cl-], the activity coefficient was found to be 19.3 ± 1.3 (358.15 K), 18.9 ± 1.3 (368.15 K), 18.4 ± 1.3 (378.15 K) and 18.4 ± 1.3 (388.15 K).
Consider `CCCO` [propan-1-ol] + CCCCn1cc[n+](C)c1.CS(=O)(=O)[O-], for which the activity coefficient reads like this: (398.15 K) 0.711 ± 0.047; (408.15 K) 0.744 ± 0.049; (418.15 K) 0.783 ± 0.051; (428.15 K) 0.823 ± 0.053.
`c1ccccc1` [benzene] + CCCCn1cc[n+](C)c1.COP(=O)([O-])OC: the activity coefficient turned out to be 2.33 ± 0.16 (358.15 K), 2.41 ± 0.16 (368.15 K), 2.49 ± 0.17 (378.15 K) and 2.63 ± 0.18 (388.15 K).
The like results for `CCOC(C)(C)C` [2-ethoxy-2-methylpropane] + CCCCn1cc[n+](C)c1.[Cl-] were, in that order, 64.8 ± 4.4, 59.3 ± 4.1, 55.7 ± 3.8 and 53.3 ± 3.6.
The corresponding values for `CCCC(=O)OC` [methyl butanoate] + CCCCn1cc[n+](C)c1.[Cl-] are 12.3 ± 0.84, 12.4 ± 0.85, 12.6 ± 0.86 and 12.7 ± 0.87.
The like results for `C=CCCCC` [hex-1-ene] + CCCCn1cc[n+](C)c1.COP(=O)([O-])OC were, in that order, 13.9 ± 0.95, 13.7 ± 0.94, 13.4 ± 0.91 and 13.2 ± 0.9.
With `C1CCOC1` [tetrahydrofuran] + CCCCn1cc[n+](C)c1.COP(=O)([O-])OC, the activity coefficient was found to be 2.79 ± 0.19 (358.15 K), 2.84 ± 0.19 (368.15 K), 2.89 ± 0.2 (378.15 K) and 3.02 ± 0.21 (388.15 K).
The like results for `C=COC(C)=O` [vinyl acetate] + CCCCn1cc[n+](C)c1.COP(=O)([O-])OC were, in that order, 2.79 ± 0.19, 2.88 ± 0.2, 2.99 ± 0.2 and 3.13 ± 0.21.
The corresponding values for `C1=CCCCC1` [cyclohexene] + CCCCn1cc[n+](C)c1.CS(=O)(=O)[O-] are 18.4 ± 1.3, 18.6 ± 1.3, 18.7 ± 1.3 and 19 ± 1.3.
The corresponding values for `C#CCCCC` [1-hexyne] + CCCCn1cc[n+](C)c1.[Cl-] are 7.33 ± 0.5, 7.85 ± 0.54, 8.19 ± 0.56 and 8.61 ± 0.59.
In the case of `O` [water] + CCCCn1cc[n+](C)c1.[Cl-], the activity coefficient by setting is: (398.15 K) 0.07 ± 0.03; (408.15 K) 0.077 ± 0.03; (418.15 K) 0.085 ± 0.03; (428.15 K) 0.094 ± 0.03.
Regarding `C1COCCO1` [1,4-dioxane] + CCCCn1cc[n+](C)c1.[Cl-], the activity coefficient runs as follows: (358.15 K) 3.47 ± 0.24; (368.15 K) 3.55 ± 0.24; (378.15 K) 3.65 ± 0.25; (388.15 K) 3.74 ± 0.25.
The corresponding values for `C1COCCO1` [1,4-dioxane] + CCCCn1cc[n+](C)c1.COP(=O)([O-])OC are 2.13 ± 0.14, 2.19 ± 0.15, 2.25 ± 0.15 and 2.37 ± 0.16.
The like results for `C#CCCC` [1-pentyne] + CCCCn1cc[n+](C)c1.CS(=O)(=O)[O-] were, in that order, 5.46 ± 0.37, 5.84 ± 0.4, 6.26 ± 0.43 and 6.67 ± 0.45.
The like results for `C1CCCCC1` [cyclohexane] + CCCCn1cc[n+](C)c1.CS(=O)(=O)[O-] were, in that order, 35.2 ± 2.4, 34.5 ± 2.4, 33.9 ± 2.3 and 33.8 ± 2.3.
`CCO` [ethanol] + CCCCn1cc[n+](C)c1.[Cl-]: the activity coefficient reads like this: (398.15 K) 0.297 ± 0.031; (408.15 K) 0.313 ± 0.031; (418.15 K) 0.332 ± 0.032; (428.15 K) 0.353 ± 0.032.
As to `COC(C)=O` [methyl ethanoate] + CCCCn1cc[n+](C)c1.[Cl-], the activity coefficient reads like this: (358.15 K) 4.82 ± 0.33; (368.15 K) 4.89 ± 0.33; (378.15 K) 5.01 ± 0.34; (388.15 K) 5.09 ± 0.35.
The corresponding values for `C=Cc1ccccc1` [styrene] + CCCCn1cc[n+](C)c1.[Cl-] are 4.96 ± 0.34, 5.18 ± 0.35, 5.42 ± 0.37 and 5.73 ± 0.39.
The corresponding values for `CCC(=O)CC` [pentan-3-one] + CCCCn1cc[n+](C)c1.COP(=O)([O-])OC are 3.73 ± 0.25, 3.81 ± 0.26, 3.89 ± 0.26 and 4.04 ± 0.28.
The like results for `CCCC(C)=O` [pentan-2-one] + CCCCn1cc[n+](C)c1.COP(=O)([O-])OC were, in that order, 3.63 ± 0.25, 3.7 ± 0.25, 3.78 ± 0.26 and 3.94 ± 0.27.
Take `CCOC(C)=O` [ethyl acetate] + CCCCn1cc[n+](C)c1.[Cl-]: the activity coefficient (358.15 K) amounted to 9.02 ± 0.62, the activity coefficient (368.15 K) was 9.06 ± 0.62, the activity coefficient (378.15 K) was 9.1 ± 0.62 and the activity coefficient (388.15 K) amounted to 9.16 ± 0.62.
The like results for `CCCOCCC` [dipropyl ether] + CCCCn1cc[n+](C)c1.[Cl-] were, in that order, 57.4 ± 3.9, 55.3 ± 3.8, 52.8 ± 3.6 and 51.9 ± 3.6.
The corresponding values for `c1ccsc1` [thiophene] + CCCCn1cc[n+](C)c1.COP(=O)([O-])OC are 1.24 ± 0.08, 1.35 ± 0.09, 1.43 ± 0.09 and 1.53 ± 0.1.
In the case of `CO` [methanol] + CCCCn1cc[n+](C)c1.CS(=O)(=O)[O-], the activity coefficient is, setting by setting: (398.15 K) 0.325 ± 0.032; (408.15 K) 0.34 ± 0.032; (418.15 K) 0.357 ± 0.033; (428.15 K) 0.373 ± 0.033.
For `CC1CCCCC1` [methylcyclohexane] + CCCCn1cc[n+](C)c1.CS(=O)(=O)[O-], the activity coefficient was 52.8 ± 3.6 (358.15 K), 51.7 ± 3.5 (368.15 K), 50.9 ± 3.5 (378.15 K) and 50.4 ± 3.5 (388.15 K).
For the compound `C=COC(C)=O` [vinyl acetate] + CCCCn1cc[n+](C)c1.CS(=O)(=O)[O-], the activity coefficient is, setting by setting: (358.15 K) 3.47 ± 0.24; (368.15 K) 3.58 ± 0.24; (378.15 K) 3.76 ± 0.26; (388.15 K) 3.92 ± 0.27.
Turning to `CO` [methanol] + CCCCn1cc[n+](C)c1.COP(=O)([O-])OC, the activity coefficient came to 0.097 ± 0.03 (398.15 K), 0.105 ± 0.03 (408.15 K), 0.115 ± 0.03 (418.15 K) and 0.125 ± 0.03 (428.15 K).
As for `C=CCCCCC` [1-heptene] + CCCCn1cc[n+](C)c1.CS(=O)(=O)[O-], the activity coefficient was found to be 59.2 ± 4.1 (358.15 K), 58.9 ± 4 (368.15 K), 58.7 ± 4 (378.15 K) and 58 ± 4 (388.15 K).
Consider `CCCCO` [butan-1-ol] + CCCCn1cc[n+](C)c1.COP(=O)([O-])OC, for which the activity coefficient (398.15 K) was 0.247 ± 0.03, the activity coefficient (408.15 K) stood at 0.271 ± 0.03, the activity coefficient (418.15 K) is 0.299 ± 0.031 and the activity coefficient (428.15 K) was 0.324 ± 0.032.
With `C=C(C)c1ccccc1` [(1-methylethenyl)benzene] + CCCCn1cc[n+](C)c1.COP(=O)([O-])OC, the activity coefficient by setting is: (358.15 K) 4.57 ± 0.31; (368.15 K) 4.77 ± 0.33; (378.15 K) 4.98 ± 0.34; (388.15 K) 5.29 ± 0.36.
The like results for `C1CCOC1` [tetrahydrofuran] + CCCCn1cc[n+](C)c1.[Cl-] were, in that order, 5.66 ± 0.39, 5.67 ± 0.39, 5.67 ± 0.39 and 5.7 ± 0.39.
The corresponding values for `C=CCCCCCC` [oct-1-ene] + CCCCn1cc[n+](C)c1.COP(=O)([O-])OC are 27.5 ± 1.9, 26.9 ± 1.8, 26.5 ± 1.8 and 26.2 ± 1.8.
